Reference: patent publication US20050209278A1, “Piperidinyl- and piperazinyl-sulfonylmethyl hydroxamic acids and their use as protease inhibitors” (priority 2002, published 2005)

Legend:
[1] = target: T1, MMP-9 (Homo sapiens, UniProt P14780); test: In vitro MMP inhibition, Ki determination (fluorogenic substrate II); format: biochemical; settings: value not in parenthesis
T1 construct: made in house; host or cells: MMP-9-transfected HT1080 cells (spent media)
Procedure, shortened: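 HT1080-derived MMP-9, activated with APMA, trypsin or MMP-3, incubated 1 hr at room temperature with inhibitor and 4 μM fluorogenic substrate II (at or below Km) in pH 7.5 Tris/NaCl/CaCl2 buffer; ex 330/em 420 nm. Ki from Morrison-equation regression, without substrate correction.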

[2] = target: T2, MMP-13 (Homo sapiens, UniProt P45452); test: as above; format: biochemical; settings: value not in parenthesis; read-out: MMP-13 Ki
T2 construct: made in house; host or cells: baculovirus / insect cells
Procedure, shortened: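 Ki determined with human recombinant MMP-13, baculovirus-expressed as proenzyme and activated with APMA. Fluorogenic MCA/Dpa substrate II at 4 μM (at or below Km) with low enzyme in Tris buffer pH 7.5 with CaCl2. Incubation was 1 h at room temperature, with fluorescence read at 330/420 nm.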

T1 sequence (P14780 107-707 limits assumed): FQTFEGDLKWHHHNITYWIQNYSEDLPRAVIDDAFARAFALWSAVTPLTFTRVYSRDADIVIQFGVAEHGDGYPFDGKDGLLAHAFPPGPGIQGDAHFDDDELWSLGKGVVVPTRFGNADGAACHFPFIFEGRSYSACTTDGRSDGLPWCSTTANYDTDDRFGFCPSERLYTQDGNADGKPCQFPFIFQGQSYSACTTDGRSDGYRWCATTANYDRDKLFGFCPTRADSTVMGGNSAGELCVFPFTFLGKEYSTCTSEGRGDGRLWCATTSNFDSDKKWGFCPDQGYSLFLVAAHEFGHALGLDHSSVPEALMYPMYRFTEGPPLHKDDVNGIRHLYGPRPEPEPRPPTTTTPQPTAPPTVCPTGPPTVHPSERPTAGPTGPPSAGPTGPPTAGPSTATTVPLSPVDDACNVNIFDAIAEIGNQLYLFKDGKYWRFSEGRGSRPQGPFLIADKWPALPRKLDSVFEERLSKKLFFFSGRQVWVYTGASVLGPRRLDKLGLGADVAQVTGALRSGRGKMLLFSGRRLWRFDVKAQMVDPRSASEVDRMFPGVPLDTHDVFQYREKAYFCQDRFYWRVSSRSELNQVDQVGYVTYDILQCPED

Ki [1] | Ki [2] | Structure (SMILES)
440 nM | 8.25 nM | CCCNC(=O)c1ccc(N2CCN(S(=O)(=O)C3(C(=O)NO)CCN(CCOC)CC3)CC2)cc1 [Example 175]
9.63 nM | 1.73 nM | COCCN1CCC(C(=O)NO)(S(=O)(=O)N2CCN(c3ccccn3)CC2)CC1 [Example 176]
220 nM | 482 nM | CCCCc1nnc(N2CCN(S(=O)(=O)C3(C(=O)NO)CCOCC3)CC2)s1 [Example 214]
34.7 nM | 2.06 nM | CCCC(C)Cc1ccc(N2CCN(S(=O)(=O)C3(C(=O)NO)CCN(CCOC)CC3)CC2)cc1 (centres unmarked) [Example 189]
0.71 nM | 0.17 nM | CCCCOc1ccc(N2CCN(S(=O)(=O)C3(C(=O)NO)CCN(C(=O)N4CCCC4)CC3)CC2)cc1 [Example 231]
141 nM | 0.69 nM | O=C(NO)C1(S(=O)(=O)N2CCN(c3cnc(CCC(F)(F)C(F)(F)F)cn3)CC2)CCOCC1 [Example 210]
2.23 nM | 5.26 nM | CCCc1cnc(N2CCN(S(=O)(=O)C3(C(=O)NO)CCN(CCOC)CC3)CC2)nc1 [Example 178]
128 nM | 32.7 nM | CCCCOc1ccc(N2CCN(S(=O)(=O)C3(C(=O)NO)CCN(c4ccc(OC(F)(F)C(F)F)cc4)CC3)CC2)cc1 [Example 65]
0.62 nM | 0.41 nM | CCCCCc1ccc(N2CCN(S(=O)(=O)C3(C(=O)NO)CCN(C(=O)CC)CC3)CC2)cc1 [Example 206]
0.2 nM | 0.08 nM | CCCCCc1ccc(N2CCN(S(=O)(=O)C3(C(=O)NO)CCOCC3)CC2)nc1 [Example 167]
4.99 nM | 1.88 nM | O=C(NO)C1(S(=O)(=O)N2CCN(c3ccccn3)CC2)CCOCC1 [Example 169]
7.53 nM | 22 nM | CCCCOc1ccc(N2CCN(S(=O)(=O)C3(C(=O)NO)CCN(CCOC)CC3)CC2)cn1 [Example 164]
0.46 nM | 1.11 nM | CCCCCc1cnc(N2CCN(S(=O)(=O)C3(C(=O)NO)CCOCC3)CC2)cn1 [Example 219]
4.67 nM | 0.967 nM | COCCN1CCC(C(=O)NO)(S(=O)(=O)N2CCN(c3ccc(OC(F)(F)F)cc3)CC2)CC1 [Example 202]
3.9 nM | 0.57 nM | CCCCOc1ccc(N2CCN(S(=O)(=O)C3(C(=O)NO)CCN(C(=O)N(C(C)C)C(C)C)CC3)CC2)cc1 [Example 244]
11.3 nM | 2.46 nM | CCCCOc1ccc(N2CCN(S(=O)(=O)C3(C(=O)NO)CCN(c4ccc(OC)cc4)CC3)CC2)cc1 [Example 249]
49.7 nM | 0.61 nM | O=C(NO)C1(S(=O)(=O)N2CCN(c3ccc(COCC(F)(F)C(F)(F)F)cc3)CC2)CCOCC1 [Example 70]
33.6 nM | 1.61 nM | CCOCCSc1ccc(N2CCN(S(=O)(=O)C3(C(=O)NO)CCOCC3)CC2)cc1 [Example 234]
157 nM | 3.32 nM | O=C(NO)C1(S(=O)(=O)N2CCN(c3cnc(CCCC(F)(F)F)cn3)CC2)CCOCC1 [Example 209]
